Where no end group is shown, it is not given here. The star is where a group is joined. Biotin = O=C1N[C@H]2[C@H](CS[C@H]2CCCCC(=O)*)N1
Assays:
[1] = tested on: murine bone marrow-derived dendritic cells (BM-DCs); test: Cytokine/chemokine secretion by murine bone marrow-derived dendritic cells (ELISA); type: cell-based, mouse; design: key to TNFα secretion / IL-18 secretion / IL-8 secretion / IL-10 secretion / IL-2 secretion / IL-1β secretion / IL-5 secretion / IL-6 secretion / IL-12 secretion: “+” indicates an increase; “−” indicates no change relative to untreated cells (medium); conditions: for secretion of IL-12 (p70): FIGS. 2B, 2H; for secretion of IL-1β: FIG. 2A; for secretion of IL-2: FIG. 2C; for secretion of IL-5: FIG. 2E
Protocol: Bone marrow-derived DCs (BM-DCs) were generated using modifications of the original method described by Inaba, et al. (J. Exp. Med. 1 76:1693-1702 (1992)). In brief, bone marrow suspensions were incubated with red cell lysis buffer (PUREGENE™ RBC Lysis Solution, Gentra Systems, Minneapolis, Minn.) to remove red blood cells. After washing in media, lymphocytes and Ia-positive cells were killed with a cocktail of monoclonal antibodies (mAbs) and rabbit complement for 60 min at 37° C. The mAbs that were used were GK1.5 anti-CD4, TIB211 anti-CD8, TIB 120 anti-Ia, and TIB 146 anti B220 (these mAbs were kindly provided by Dr. Ralph Steinman). The cells were subsequently cultured in media containing 5% FCS and 10 ng/ml recombinant mouse GM-CSF (R&D Systems, Minneapolis, Minn.) for 7 days. For some experiments, the cells were further purified at day 7 using CD11c^+-microbeads (Miltenyi Biotech., Auburn, Calif.), according to the manufacturer's instructions.
(§1) Recombinant HMGB1-B box domain (HMGB1-Bx) was expressed in Escherichia coli and purified as described by Li, et al. (Mol. Med. 9:37-45; J. Immunol. Methods 289:211-223 (2004)). Purified HMGB1-Bx contained trace amounts of LPS (19 pg LPS/μg HMGB1-Bx) as measured by the chromogenic Limulus amebocyte lysate assay (BioWhittacker Inc, Walkersville, Md.). All experiments using HMGB1-Bx, as well as the HMGB1 peptides, were performed in the presence of polymyxin B (200 U/ml) to neutralize the amount of contaminating LPS in the HMGB1-Bx and peptide preparations. We have previously shown that the DC stimulatory capacity of HMGB1-Bx requires an intact tertiary structure and is not due to contaminating amounts of LPS, as trypsinization abolished HMGB1-Bx activity (Messmer, et al., J. Immunol. 173: 307-313 (2004); the entire teachings of which are incorporated herein by reference).
(§2) Secreted cytokine/chemokine levels were measured by ELISA (Pierce Boston Technology Center, SearchLight™ Proteome Arrays Multiplex Sample Testing Services, Woburn, Mass.) 48 h after addition of the various peptides. Polymyxin B (200 U/ml) was added to all cultures, except those containing LPS, before the stimuli were added. Immature monocyte-derived human dendritic cells (DCs) and immature bone-marrow derived murine dendritic cells (BM-DCs) were cultured either in the presence of HMGB1 peptides (200 μg/ml), whose sequences map to different regions of the HMGB1 protein (see Table 1), the entire HMGB1 B-box domain (HMGB1-Bx) (50 μg/ml), or LPS (100 ng/ml). Untreated cells (medium) were tested as a control. Each peptide was named according to the corresponding position of its first amino acid within the full-length HMGB1 sequence. All peptides were N-terminally biotinylated except “Hp-106 (non bio)”.

[2] = tested on: human immature monocyte-derived dendritic cells (DCs); test: Cytokine/chemokine secretion by human immature monocyte-derived dendritic cells (ELISA); type: cell-based; design: key to TNFα secretion / IL-18 secretion / IL-8 secretion / IL-10 secretion / IL-6 secretion / IL-12 secretion: “+” indicates an increase; “−” indicates no change relative to untreated cells (medium); conditions: for secretion of IL-6 by DCs / cytokine secretion by human DCs / secretion of IL-12 (p70) / secretion of TNF-α / secretion of IL-18 / secretion of IL-8: human DCs; for secretion of IL-6 by DCs: FIGS. 1A, 1B; for secretion of IL-6 by DCs / IL-6 secretion / IL-8 secretion / IL-10 secretion / IL-12 secretion / IL-18 secretion / TNFα secretion / secretion of IL-12 (p70) / secretion of TNF-α / secretion of IL-18 / secretion of IL-8: peptides 200 μg/ml; for secretion of IL-6 by DCs / secretion of IL-12 (p70) / secretion of TNF-α / secretion of IL-18 / secretion of IL-8: 48 h; for IL-6 secretion / IL-8 secretion / IL-10 secretion / IL-12 secretion / IL-18 secretion / TNFα secretion: HUMAN DC, ELISA 48 h after exposure, relative to untreated cells; for IL-6 secretion / IL-8 secretion / IL-10 secretion / IL-12 secretion / IL-18 secretion / TNFα secretion / secretion of IL-18 / secretion of IL-8: HMGB1-Bx 50 μg/ml; for secretion of IL-12 (p70): FIG. 1C; for secretion of TNF-α: FIG. 1D; for secretion of IL-18: FIG. 1E; for secretion of IL-8: FIG. 1F
Protocol: Peripheral blood mononuclear cells (PBMCs) were isolated from the blood of normal volunteers (Long Island Blood Services, Melville, N.Y.) over a Ficoll-Hypaque (Amersham Biosciences, Uppsala, Sweden) density gradient. CD14^+ monocytes were isolated from PBMCs by positive selection using anti-CD14 beads (Miltenyi Biotech., Auburn, Calif.), following the manufacturer's instructions. To generate DCs, CD14^+ cells were cultured in RPMI 1640 medium supplemented with 2 mM L-glutamine (GIBCO-BRL Life Technologies, Grand Island, N.Y.), 50 μM 2-mercaptoethanol (Sigma, St. Louis, Mo.), 10 mM HEPES (GIBCO-BRL), penicillin (100 U/ml), streptomycin (100 μg/ml) (GIBCO-BRL), and 5% human AB serum (Gemini Bio-Products, Woodland, Calif.). Cultures were maintained for 7 days in 6-well trays (3×10^6 cells/well) supplemented with 1000 U GM-CSF per ml (Immunex, Seattle, Wash.) and 200 U IL-4 per ml (R&D Systems, Minneapolis, Minn.) at days 0, 2, 4 and 6.
as §1, §2

[3] = tested on: allogeneic T cells co-cultured with BM-DCs; test: Functional maturation of BM-DCs: allogeneic T cell proliferation in mixed lymphocyte reaction (3H-thymidine); type: cell-based, mouse; conditions: BM-DCs from C57/BL6 mice exposed 48 h; peptide 200 μg/ml, HMGB1-Bx 50 μg/ml; DC:T cell ratio 1:120, 5 days; FIG. 4A
Protocol: Immature BM-DCs that were generated from C57/BL6 mice (FIG. 4A) or Balb/c mice (FIG. 4B) were incubated for 48 h with either HMGB1-Bx (50 μg/ml), a particular HMGB1 peptide (200 μg/ml), LPS (100 ng/ml) or were left untreated (medium). T cells were isolated by negative selection using the mouse SpinSep antibody cocktail from StemCell Technologies (Vancouver, Calif.), according to the manufacturer's instructions. The cell purity of the isolated T cells was routinely ˜99% pure. In order to assess levels of T cell activation and proliferation, cells were plated at 10^5 cells per well in a round-bottomed 96-well tray at a DC:T cell ratio of 1:120 for 5 days in the medium described above. The microcultures were pulsed with (^3H)-thymidine ([…]) for the final 8 h of culture. Cell cultures were harvested onto glass fiber filters with an automated multiple sample harvester and the amount of isotope incorporation was determined by liquid scintillation β-emission. Responses are reported as mean cpm of thymidine incorporation by triplicate cultures (±SEM).

immature BM-DCs = test: Phenotypic maturation of murine BM-DCs: surface maturation markers by FACS; type: cell-based, mouse; conditions: CD11c+ gated, mean fluorescence intensity, peptide 200 μg/ml, HMGB1-Bx 50 μg/ml
Protocol: In order to determine whether HMGB1-Bx and/or particular HMGB1 peptides could induce phenotypic maturation of murine DCs, immature BM-DCs were exposed to either HMGB1-Bx, a particular HMGB1 peptide, or LPS (FIG. 3). Fluorescence activated cell sorting (FACS) analysis was performed on immature DCs that were cultured in the presence of either HMGB1-Bx (50 μg/ml), an HMGB1 peptide (200 μg/ml), or LPS (100 ng/ml). Untreated DCs (medium) were also tested as a control. DCs were gated on CD11c^+ cells and analyzed for expression of specific maturation markers (e.g., CD86, MHC-II, CD40) by surface membrane immunofluorescence. In particular, 1×10^4 DCs were reacted for at least 20 min at 4° C. in […] of PBS/5% FCS/0.1% sodium azide (staining buffer) with fluorescein isothiocyanate (FITC)-conjugated IgG monoclonal antibodies (mAbs) that are specific for CD86, CD40 or MHC-II (eBioscience). Cells were then washed 4 times with staining buffer, fixed in 10% formaldehyde in PBS (pH 7.2-7.4) and examined by flow cytometry using a FACScan (BD Biosciences). In all experiments, isotype controls were included using a FITC-conjugated irrelevant mAb of the same Ig class. Results are depicted as mean fluorescence intensity (MFI).

[4] = murine BM-DCs, peptides 200 μg/ml, HMGB1-Bx 50 μg/ml, 48 h
[5] = MURINE DC, ELISA 48 h after exposure, peptides 200 μg/ml, HMGB1-Bx 50 μg/ml, relative to untreated cells

CSEYRPKIKGEHPGLSIG [Hp-106 (non bio), Hp-106 peptide that was not biotinylated at its N-terminus]
secretion of IL-12 (p70) [1, 4]: did not enhance IL-12 secretion | secretion of IL-6 by DCs [2]: failed to stimulate IL-6 secretion

DPNAPKRPPSAFFLFCSE (Biotin-DPNAPKRPPSAFFLFCSE; listed as Homo sapiens) [Hp-91]
IL-1β secretion [1, 5]: + | IL-2 secretion [1, 5]: + | IL-5 secretion [1, 5]: + | IL-6 secretion [1, 5]: − | IL-8 secretion [1, 5]: − | IL-10 secretion [1, 5]: − | IL-12 secretion [1, 5]: + | IL-18 secretion [1, 5]: − | TNFα secretion [1, 5]: − | cytokine secretion by murine BM-DCs ([1]; murine BM-DCs): induced cytokine secretion by murine BM-DCs | secretion of IL-1β [1, 4]: increased production | secretion of IL-2 [1, 4]: increased production | secretion of IL-8 ([1]; murine BM-DCs, FIG. 2D, peptides 200 μg/ml, HMGB1-Bx 50 μg/ml, 48 h): not | secretion of IL-5 [1, 4]: increased production | secretion of IL-18 ([1]; murine BM-DCs, FIG. 2F, peptides 200 μg/ml, HMGB1-Bx 50 μg/ml, 48 h): not | secretion of TNF-α ([1]; murine BM-DCs, FIG. 2G, peptides 200 μg/ml, HMGB1-Bx 50 μg/ml, 48 h): not | IL-6 secretion [2]: + | IL-8 secretion [2]: − | IL-10 secretion [2]: − | IL-12 secretion [2]: + | IL-18 secretion [2]: + | TNFα secretion [2]: + | cytokine secretion by human DCs [2]: induced cytokine secretion by human DCs | secretion of IL-12 (p70) [2]: induced secretion | secretion of TNF-α [2]: induced secretion | secretion of IL-18 [2]: induced secretion | secretion of IL-8 [2]: did not induce secretion | secretion of IL-6 by DCs [2]: enhanced IL-6 secretion

HPDASVNFSEFSKKCSER (Biotin-HPDASVNFSEFSKKCSER; listed as Homo sapiens) [Hp-31]
IL-1β secretion [1, 5]: + | IL-2 secretion [1, 5]: + | IL-5 secretion [1, 5]: + | IL-6 secretion [1, 5]: − | IL-10 secretion [1, 5]: − | IL-12 secretion [1, 5]: + | cytokine secretion by murine BM-DCs ([1]; murine BM-DCs): induced cytokine secretion by murine BM-DCs | secretion of IL-6 ([1]; murine BM-DCs): not | secretion of IL-10 ([1]; murine BM-DCs): not | secretion of IL-1β [1, 4]: enhanced the production | secretion of IL-2 [1, 4]: enhanced the production | secretion of IL-5 [1, 4]: enhanced the production | secretion of IL-12 (p70) [1, 4]: enhanced the production | IL-6 secretion [2]: + | IL-8 secretion [2]: − | IL-10 secretion [2]: − | IL-12 secretion [2]: + | IL-18 secretion [2]: + | TNFα secretion [2]: + | cytokine secretion by human DCs [2]: induced cytokine secretion by human DCs | secretion of IL-12 (p70) [2]: induced secretion | secretion of TNF-α [2]: induced secretion | secretion of IL-18 [2]: induced secretion | secretion of IL-8 [2]: did not induce secretion | secretion of IL-6 by DCs [2]: induced secretion

SERWKTMSAKEKGKFEDM (Biotin-SERWKTMSAKEKGKFEDM; listed as Homo sapiens) [Hp-46]
secretion of IL-6 by DCs [2]: did not induce IL-6 secretion | proliferation of resting allogeneic T cells (3H thymidine incorporation) [3]: did not show enhanced T cell stimulatory activity

SIGDVAKKLGEMWNNTAA (Biotin-SIGDVAKKLGEMWNNTAA; listed as Homo sapiens) [Hp-121, control peptide]
CD86 expression on the surface of BM-DCs (immature BM-DCs; FIG. 3A): No altered expression | MHC-II expression on the surface of BM-DCs (immature BM-DCs; FIG. 3B): No altered expression | CD40 expression on the surface of BM-DCs (immature BM-DCs; FIG. 3C): No altered expression | proliferation of resting allogeneic T cells (3H thymidine incorporation) [3]: did not show enhanced T cell stimulatory activity

From patent US8354106B2, “Antibodies against HMGB1 and fragments thereof” (The Feinstein Institute for Medical Research, priority 2005, dated 2013)
